In patent US20190119284A1, “ErbB Inhibitors and Uses Thereof” (The Regents of the University of California, priority 2016, published 2019):

What was measured:
[1] = test system: HER2/HER3 heterodimer signaling in MCF-7 cells; assay: HER2/HER3 signaling in MCF-7 cells, pre-treat vs simultaneous NRG addition; type: cell-based
Protocol: FIGS. 2A-2D. […] FIG. 2B: NRG rescues the 72 h proliferation of CW-2 cells, which contain an activating mutation in HER3 (E928G), from HER2 inhibitors (mean±SD, n=3).
FIG. 17. MCF-7 cells were serum starved for 24 h and then either treated with compound 3 for 15 min followed by a 15 min NRG stimulation (15 min pre-treat), or compound 3 and NRG were added simultaneously for 15 min (simultaneous addition).

FGFR1 = FGFR1 (Homo sapiens, UniProt P11362); assay: Nanosyn in vitro kinase profiling: FGFR1; type: biochemical; conditions: for inhibition at 1 µM: compound at 1 μM
Protocol: (§1) This was confirmed by in vitro profiling against a panel of kinases, with compound 2 only showing potent inhibition of EGFR and Ab1 (Table 2).
(§2) In vitro Kinome Screen. In vitro profiling of compound 2 at 100 nM was conducted by Nanosyn.

IGF1R = IGF1R (Homo sapiens, UniProt P08069); assay: Nanosyn in vitro kinase profiling: IGF1R; type: biochemical; conditions: for inhibition at 1 µM: compound at 1 μM
Protocol: as §1, §2

P38-ALPHA = P38-ALPHA (Homo sapiens, UniProt Q16539); assay: Nanosyn in vitro kinase profiling: P38-ALPHA; type: biochemical; conditions: for inhibition at 1 µM: compound at 1 μM
Protocol: as §1, §2

PRKD2 = molecular target: T1, PRKD2 (Homo sapiens, UniProt Q9BZL6); assay: Nanosyn in vitro kinase profiling: PRKD2; type: biochemical; conditions: for inhibition at 1 µM: compound at 1 μM
T1 sequence (Q9BZL6 1-878): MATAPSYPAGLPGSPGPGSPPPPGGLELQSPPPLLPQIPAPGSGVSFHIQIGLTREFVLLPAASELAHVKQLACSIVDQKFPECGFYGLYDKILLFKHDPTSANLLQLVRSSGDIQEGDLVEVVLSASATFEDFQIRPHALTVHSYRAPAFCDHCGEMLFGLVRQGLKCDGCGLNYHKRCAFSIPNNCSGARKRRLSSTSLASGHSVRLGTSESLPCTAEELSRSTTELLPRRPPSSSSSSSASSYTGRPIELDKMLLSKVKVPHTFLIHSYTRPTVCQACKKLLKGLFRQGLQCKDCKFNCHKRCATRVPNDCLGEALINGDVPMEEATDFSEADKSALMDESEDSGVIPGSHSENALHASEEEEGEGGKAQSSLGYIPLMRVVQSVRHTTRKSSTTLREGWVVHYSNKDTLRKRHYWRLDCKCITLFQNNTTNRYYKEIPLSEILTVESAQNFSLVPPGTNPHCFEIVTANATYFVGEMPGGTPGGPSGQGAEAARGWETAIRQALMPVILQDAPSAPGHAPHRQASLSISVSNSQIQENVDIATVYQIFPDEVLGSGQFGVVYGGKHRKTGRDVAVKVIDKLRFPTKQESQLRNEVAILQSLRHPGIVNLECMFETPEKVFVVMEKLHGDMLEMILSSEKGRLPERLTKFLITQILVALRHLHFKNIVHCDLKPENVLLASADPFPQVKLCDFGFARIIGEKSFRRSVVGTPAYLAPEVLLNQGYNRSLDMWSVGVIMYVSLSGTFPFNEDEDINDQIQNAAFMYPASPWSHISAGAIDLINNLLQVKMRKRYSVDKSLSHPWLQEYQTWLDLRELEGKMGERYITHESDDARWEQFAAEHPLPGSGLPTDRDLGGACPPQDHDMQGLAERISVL
Protocol: as §1, §2

AMP-A1B1G1 = AMP-A1B1G1 (Homo sapiens, UniProt Q13131); assay: Nanosyn in vitro kinase profiling: AMP-A1B1G1; type: biochemical; conditions: for inhibition at 1 µM: compound at 1 μM
Protocol: as §1, §2

IRAK4 = molecular target: T2, IRAK4 (Homo sapiens, UniProt Q9NWZ3); assay: Nanosyn in vitro kinase profiling: IRAK4; type: biochemical; conditions: for inhibition at 1 µM: compound at 1 μM
T2 sequence (Q9NWZ3 1-460): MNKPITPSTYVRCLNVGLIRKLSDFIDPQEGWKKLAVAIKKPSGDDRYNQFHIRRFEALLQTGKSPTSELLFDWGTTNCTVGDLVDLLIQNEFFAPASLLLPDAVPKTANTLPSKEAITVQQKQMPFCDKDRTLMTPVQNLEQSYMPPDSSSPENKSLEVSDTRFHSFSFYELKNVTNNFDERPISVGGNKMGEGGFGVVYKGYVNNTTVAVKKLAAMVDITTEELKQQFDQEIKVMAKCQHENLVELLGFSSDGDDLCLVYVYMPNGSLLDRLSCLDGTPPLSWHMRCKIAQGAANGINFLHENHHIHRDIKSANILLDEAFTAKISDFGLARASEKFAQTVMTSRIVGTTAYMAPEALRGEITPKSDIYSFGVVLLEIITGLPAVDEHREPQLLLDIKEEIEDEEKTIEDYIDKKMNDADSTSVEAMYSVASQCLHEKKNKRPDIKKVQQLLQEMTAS
Protocol: as §1, §2

PKC-ALPHA = PKC-ALPHA (Homo sapiens, UniProt P17252); assay: Nanosyn in vitro kinase profiling: PKC-ALPHA; type: biochemical; conditions: for inhibition at 1 µM: compound at 1 μM
Protocol: as §1, §2

JNK2 = JNK2 (Homo sapiens, UniProt P45984); assay: Nanosyn in vitro kinase profiling: JNK2; type: biochemical; conditions: for inhibition at 1 µM: compound at 1 μM
Protocol: as §1, §2

Chain of P38-ALPHA (Q16539 whole entry): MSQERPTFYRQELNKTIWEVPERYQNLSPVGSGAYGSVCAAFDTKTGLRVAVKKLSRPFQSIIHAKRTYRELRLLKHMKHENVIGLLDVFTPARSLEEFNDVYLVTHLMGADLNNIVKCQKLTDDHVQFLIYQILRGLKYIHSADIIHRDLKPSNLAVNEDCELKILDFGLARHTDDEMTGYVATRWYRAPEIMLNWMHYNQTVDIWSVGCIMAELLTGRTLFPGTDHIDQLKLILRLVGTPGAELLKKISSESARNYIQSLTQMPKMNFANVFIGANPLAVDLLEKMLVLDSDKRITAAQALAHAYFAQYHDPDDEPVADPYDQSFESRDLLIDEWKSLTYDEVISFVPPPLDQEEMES
Chain of IGF1R (P08069 31-1367): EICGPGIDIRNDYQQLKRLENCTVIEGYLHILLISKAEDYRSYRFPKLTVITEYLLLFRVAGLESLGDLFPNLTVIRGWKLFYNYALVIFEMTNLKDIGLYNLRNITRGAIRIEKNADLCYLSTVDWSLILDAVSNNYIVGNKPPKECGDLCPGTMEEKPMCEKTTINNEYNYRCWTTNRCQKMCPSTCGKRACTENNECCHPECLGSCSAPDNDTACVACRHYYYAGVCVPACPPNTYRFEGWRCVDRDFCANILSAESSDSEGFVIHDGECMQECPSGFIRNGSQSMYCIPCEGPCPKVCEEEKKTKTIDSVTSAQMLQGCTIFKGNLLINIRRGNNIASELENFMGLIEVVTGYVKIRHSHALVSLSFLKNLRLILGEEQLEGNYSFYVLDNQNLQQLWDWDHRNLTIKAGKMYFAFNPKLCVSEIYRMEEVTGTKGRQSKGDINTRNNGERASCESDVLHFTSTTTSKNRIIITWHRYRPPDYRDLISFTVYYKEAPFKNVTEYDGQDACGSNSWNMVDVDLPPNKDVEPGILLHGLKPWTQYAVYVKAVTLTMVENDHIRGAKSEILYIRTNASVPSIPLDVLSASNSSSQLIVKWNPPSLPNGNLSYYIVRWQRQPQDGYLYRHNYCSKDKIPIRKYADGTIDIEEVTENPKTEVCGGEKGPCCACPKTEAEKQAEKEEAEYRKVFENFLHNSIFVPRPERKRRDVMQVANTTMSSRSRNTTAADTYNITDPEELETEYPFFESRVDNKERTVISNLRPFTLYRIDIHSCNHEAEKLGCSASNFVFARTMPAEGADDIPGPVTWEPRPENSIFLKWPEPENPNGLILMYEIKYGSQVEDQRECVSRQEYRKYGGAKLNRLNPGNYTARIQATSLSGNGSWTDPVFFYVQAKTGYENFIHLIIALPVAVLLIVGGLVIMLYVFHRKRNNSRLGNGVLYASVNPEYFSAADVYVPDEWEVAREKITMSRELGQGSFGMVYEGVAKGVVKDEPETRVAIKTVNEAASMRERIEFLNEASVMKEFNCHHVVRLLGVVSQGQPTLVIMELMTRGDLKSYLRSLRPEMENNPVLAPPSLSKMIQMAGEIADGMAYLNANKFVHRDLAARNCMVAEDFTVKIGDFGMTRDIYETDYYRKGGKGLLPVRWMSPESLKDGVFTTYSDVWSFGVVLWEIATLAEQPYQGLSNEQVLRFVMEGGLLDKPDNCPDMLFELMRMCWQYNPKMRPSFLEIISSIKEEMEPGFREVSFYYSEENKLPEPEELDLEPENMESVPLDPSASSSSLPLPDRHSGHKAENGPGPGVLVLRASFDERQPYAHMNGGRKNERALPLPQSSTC
Chain of FGFR1 (P11362 22-822): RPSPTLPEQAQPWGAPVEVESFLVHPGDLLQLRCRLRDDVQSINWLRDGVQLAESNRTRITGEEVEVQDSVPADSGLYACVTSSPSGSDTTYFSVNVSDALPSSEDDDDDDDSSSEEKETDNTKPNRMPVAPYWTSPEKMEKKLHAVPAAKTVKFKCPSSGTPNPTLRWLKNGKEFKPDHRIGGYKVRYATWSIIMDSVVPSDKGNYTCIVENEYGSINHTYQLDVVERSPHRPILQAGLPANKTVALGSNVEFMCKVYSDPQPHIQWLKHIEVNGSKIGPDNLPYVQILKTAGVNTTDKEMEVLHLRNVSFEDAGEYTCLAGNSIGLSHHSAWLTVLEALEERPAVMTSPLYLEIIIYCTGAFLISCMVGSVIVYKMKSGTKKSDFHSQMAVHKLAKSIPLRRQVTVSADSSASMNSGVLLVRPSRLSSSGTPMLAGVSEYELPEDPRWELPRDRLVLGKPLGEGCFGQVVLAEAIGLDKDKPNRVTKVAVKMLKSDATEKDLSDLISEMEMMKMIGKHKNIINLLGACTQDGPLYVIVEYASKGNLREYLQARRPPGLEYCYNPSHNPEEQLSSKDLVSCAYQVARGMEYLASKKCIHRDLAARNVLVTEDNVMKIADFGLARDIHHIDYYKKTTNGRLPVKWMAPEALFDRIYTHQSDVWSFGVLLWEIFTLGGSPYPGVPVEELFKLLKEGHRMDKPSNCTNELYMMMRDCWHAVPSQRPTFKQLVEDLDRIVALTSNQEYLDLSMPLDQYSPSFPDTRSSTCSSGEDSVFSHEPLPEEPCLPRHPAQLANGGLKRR
Chain of AMP-A1B1G1 (Q13131 whole entry): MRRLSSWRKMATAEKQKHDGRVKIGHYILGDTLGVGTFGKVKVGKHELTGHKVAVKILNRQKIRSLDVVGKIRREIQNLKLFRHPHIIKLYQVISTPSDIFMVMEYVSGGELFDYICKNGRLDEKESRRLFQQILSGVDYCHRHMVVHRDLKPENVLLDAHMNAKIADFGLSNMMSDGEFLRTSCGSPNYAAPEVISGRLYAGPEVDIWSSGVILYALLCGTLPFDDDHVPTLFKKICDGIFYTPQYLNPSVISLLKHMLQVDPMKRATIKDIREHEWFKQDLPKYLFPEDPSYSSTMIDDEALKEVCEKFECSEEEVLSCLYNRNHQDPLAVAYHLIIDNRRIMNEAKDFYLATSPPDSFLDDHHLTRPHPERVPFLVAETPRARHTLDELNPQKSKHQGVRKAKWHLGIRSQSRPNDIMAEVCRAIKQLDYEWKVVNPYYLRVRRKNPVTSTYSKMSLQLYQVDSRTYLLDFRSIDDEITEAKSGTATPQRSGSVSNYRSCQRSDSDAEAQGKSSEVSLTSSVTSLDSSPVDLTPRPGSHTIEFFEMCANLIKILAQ
Chain of AMP-A1B1G1 (Q9Y478 whole entry partner): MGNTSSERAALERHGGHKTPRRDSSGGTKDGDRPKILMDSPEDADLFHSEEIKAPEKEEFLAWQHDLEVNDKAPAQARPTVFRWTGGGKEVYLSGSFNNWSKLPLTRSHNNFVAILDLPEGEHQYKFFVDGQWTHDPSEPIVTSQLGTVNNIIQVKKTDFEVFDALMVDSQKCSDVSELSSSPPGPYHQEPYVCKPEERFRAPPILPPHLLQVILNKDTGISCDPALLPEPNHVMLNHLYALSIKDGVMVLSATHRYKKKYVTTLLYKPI
Chain of AMP-A1B1G1 (P54619 whole entry partner): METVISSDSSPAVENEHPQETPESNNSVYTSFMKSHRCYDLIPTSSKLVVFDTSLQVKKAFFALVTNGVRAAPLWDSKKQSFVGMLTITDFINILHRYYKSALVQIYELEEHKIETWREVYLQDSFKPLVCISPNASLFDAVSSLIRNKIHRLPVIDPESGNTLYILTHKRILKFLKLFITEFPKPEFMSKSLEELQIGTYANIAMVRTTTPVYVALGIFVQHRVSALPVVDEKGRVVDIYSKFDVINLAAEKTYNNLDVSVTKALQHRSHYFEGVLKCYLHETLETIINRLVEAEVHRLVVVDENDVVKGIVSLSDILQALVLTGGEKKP
Chain of JNK2 (P45984 whole entry, species assumed): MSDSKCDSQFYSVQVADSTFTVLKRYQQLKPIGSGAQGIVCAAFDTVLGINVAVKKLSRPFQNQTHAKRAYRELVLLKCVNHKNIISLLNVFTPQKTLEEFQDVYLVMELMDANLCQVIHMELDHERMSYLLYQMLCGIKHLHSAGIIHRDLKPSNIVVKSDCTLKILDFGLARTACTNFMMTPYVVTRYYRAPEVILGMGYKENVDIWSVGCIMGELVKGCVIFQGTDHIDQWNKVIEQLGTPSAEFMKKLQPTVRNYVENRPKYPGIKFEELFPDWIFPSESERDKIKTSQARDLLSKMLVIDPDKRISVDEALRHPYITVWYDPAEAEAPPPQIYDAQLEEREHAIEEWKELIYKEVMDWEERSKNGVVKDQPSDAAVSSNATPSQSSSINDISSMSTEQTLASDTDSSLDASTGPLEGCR

inhibition at 1 µM (FGFR1) [%]	inhibition at 1 µM (IGF1R) [%]	inhibition at 1 µM (P38-ALPHA) [%]	inhibition at 1 µM (PRKD2) [%]	inhibition at 1 µM (AMP-A1B1G1) [%]	inhibition at 1 µM (IRAK4) [%]	inhibition at 1 µM (PKC-ALPHA) [%]	inhibition at 1 µM (JNK2) [%]	inhibition at 0.1 µM (FGFR1; compound at 100 nM) [%]	inhibition at 0.1 µM (IGF1R; compound at 100 nM) [%]	inhibition at 0.1 µM (P38-ALPHA; compound at 100 nM) [%]	inhibition at 0.1 µM (PRKD2; compound at 100 nM) [%]	inhibition at 0.1 µM (AMP-A1B1G1; compound at 100 nM) [%]	inhibition at 0.1 µM (IRAK4; compound at 100 nM) [%]	inhibition at 0.1 µM (PKC-ALPHA; compound at 100 nM) [%]	inhibition at 0.1 µM (JNK2; compound at 100 nM) [%]	SMILES	shift in ability to inhibit signaling +/- pre-incubation ([1]; MCF-7, 15 min pre-treat vs simultaneous NRG)	efficacy on signaling, 15 min pre-treat vs simultaneous addition with NRG ([1]; MCF-7, serum starved 24 h)
93	46	2	28	20	34	30	7	–	–	–	–	–	–	–	–	COc1ccc(-c2ccoc2)cc1Nc1ncnc2[nH]cc(-c3cc[nH]n3)c12 [compound 3, N-(5-(furan-3-yl)-2-methoxyphenyl)-5-(1H-pyrazol-3-yl)-7H-pyrrolo[2,3-d]pyrimidin-4-amine]	little to no shift	–
86.3	53.3	12.9	26.6	12.9	1.42	5.57	6.62	48.3	13.3	6.61	5.46	2.69	1.47	1.24	1.07	COc1ccc(-c2ccco2)cc1Nc1ncnc2[nH]nc(-c3ccco3)c12 [compound 2, 3-(furan-2-yl)-N-(5-(furan-2-yl)-2-methoxyphenyl)-1H-pyrazolo[3,4-d]pyrimidin-4-amine]	–	–
–	–	–	–	–	–	–	–	–	–	–	–	–	–	–	–	CS(=O)(=O)CCNCc1ccc(-c2ccc3ncnc(Nc4ccc(OCc5cccc(F)c5)c(Cl)c4)c3c2)o1 [lapatinib]	–	reduced efficacy of lapatinib when simultaneously added with NRG
